Test results published in patent EP0721336B1, “BENZAZOLE COMPOUNDS FOR USE IN THERAPY” (CANCER RESEARCH CAMPAIGN TECHNOLOGY LIMITED, priority 1993, dated 1995).
≈ marks a conversion by molar mass, not a printed value. Like-named read-outs stand apart in the source and are kept apart here. Marks after values point to notes of the source that are not given here.

Legend:
MCF-7 mammary carcinoma = conditions: mouse, in vivo, ip, 120 mg/kg
[1] = tested on: NCI (National Cancer Institute, U.S.A.) panel of human tumour cell lines; assay: NCI tumour cell line panel test; type: cell-based; conditions: panel contains no breast cancer cell lines
EGFR = EGFR (Homo sapiens, UniProt P00533); assay: Displacement of iodinated EGF from EGFR; type: binding; conditions: 1µM, 10µM and 100µM
[2] = tested on: human MDA 468 xenograft tumours; assay: In vivo activity against MDA 468 xenograft; parameters: species or system nude mice
Procedure: The effect of CJM 126 (0.1, 0.01 and 0.001mg/kg) has also been investigated in nude mice bearing human MDA 468 xenograft tumours.

A431 cells = assay: In vitro growth assay; type: cell-based; conditions: range of concentrations 0.1nM-10µM
Procedure: No effect was observed, for example, on the growth of A431 cells as a result of exposure to CJM 126 over a range of concentrations (0.1nM-10µM).
In carrying out the above in vitro studies, the method used for conducting the cytotoxicity assays was generally substantially as follows: • Cells were maintained in a continuous logarithmic culture in Dulbecco's medium supplemented with 10% fetal calf serum and penicillin (100 IU/ml) and streptomycin (100 µg/ml). The cells were mildly trypsinized for passage and for use in assays. On day zero, 100µl of trypsinized tumour cells (1 x 10^4/ml) were plated in the wells of 96-well flat-bottom microtiter plates. […] On day two 50µl of the highest drug concentration was added to the wells of column 12 and from there serially diluted 3-fold to column 1 by serial transfer of 50µl using an 8-channel micropipette. The final volume of column 1 was adjusted to 100µl. No additions were made to the wells of rows A and B, which served as controls. The plates were further incubated for 5 days at 37°C and 5% CO2 in air. […] The plates were kept at 4°C overnight before reading on an inverted microscope equipped with an automated scanning stage. Fluorescence intensity was measured in arbitrary units by a photomultiplier. […]

MCF 7-ADR mammary = assay: In vitro cytotoxicity and growth stimulation assay; type: cell-based, human
Text: This is illustrated in Tables 1 and 2 at the end of the present description which show in vitro test results obtained in various sets of experiments for the cytotoxic activity of this compound CJM 126 against a range of human tumour cell lines, expressed in terms of IC50 values (concentration or dosage required to reduce cell growth or proliferation by 50%) calculated from dose-effect curves plotted for cultures of the cells in question.
In carrying out the above in vitro studies, the method used for conducting the cytotoxicity assays was generally substantially as follows: • Cells were maintained in a continuous logarithmic culture in Dulbecco's medium supplemented with 10% fetal calf serum and penicillin (100 IU/ml) and streptomycin (100 µg/ml). The cells were mildly trypsinized for passage and for use in assays. On day zero, 100µl of trypsinized tumour cells (1 x 10^4/ml) were plated in the wells of 96-well flat-bottom microtiter plates. […] On day two 50µl of the highest drug concentration was added to the wells of column 12 and from there serially diluted 3-fold to column 1 by serial transfer of 50µl using an 8-channel micropipette. The final volume of column 1 was adjusted to 100µl. No additions were made to the wells of rows A and B, which served as controls. The plates were further incubated for 5 days at 37°C and 5% CO2 in air. Each compound was tested in duplicate. • On day 7 the test was terminated by the addition of 100µl saline containing 0.002% w/v propidium iodide (Sigma), 0.3% drawing ink (Staedtler "Marsmatic 745" - Trade Mark) and 0.5% Triton X-100. The plates were kept at 4°C overnight before reading on an inverted microscope equipped with an automated scanning stage. Fluorescence intensity was measured in arbitrary units by a photomultiplier. An HP-87 computer controlled the movement of the stage and also collected and processed the data from the multiplier. • For each compound tested a dose-response curve was obtained and the IC50 value (the drug concentration at 50% inhibition of cell growth) was calculated.

[3] = tested on: BO (T61) human mammary carcinomas; assay: In vivo activity against implanted BO tumour; parameters: species or system NMRI-nu/nu female mice; conditions: i.p., qd 27,34,41
Aqueous solubility = type: physicochemical; conditions: water
Procedure: The latter was first obtained (as yellow crystals, m.p. 229-231°C, crystallised from methanol or dimethyl formamide) either via Route C (71% yield) from 2-aminothiophenol and 4-nitrobenzoyl chloride, or via Route D (10% yield) from the corresponding thiobenzanilide and potassium ferricyanide.

[4] = Lethal dose (LD50) determination; type: in vivo

Sequence of EGFR (P00533 25-1210): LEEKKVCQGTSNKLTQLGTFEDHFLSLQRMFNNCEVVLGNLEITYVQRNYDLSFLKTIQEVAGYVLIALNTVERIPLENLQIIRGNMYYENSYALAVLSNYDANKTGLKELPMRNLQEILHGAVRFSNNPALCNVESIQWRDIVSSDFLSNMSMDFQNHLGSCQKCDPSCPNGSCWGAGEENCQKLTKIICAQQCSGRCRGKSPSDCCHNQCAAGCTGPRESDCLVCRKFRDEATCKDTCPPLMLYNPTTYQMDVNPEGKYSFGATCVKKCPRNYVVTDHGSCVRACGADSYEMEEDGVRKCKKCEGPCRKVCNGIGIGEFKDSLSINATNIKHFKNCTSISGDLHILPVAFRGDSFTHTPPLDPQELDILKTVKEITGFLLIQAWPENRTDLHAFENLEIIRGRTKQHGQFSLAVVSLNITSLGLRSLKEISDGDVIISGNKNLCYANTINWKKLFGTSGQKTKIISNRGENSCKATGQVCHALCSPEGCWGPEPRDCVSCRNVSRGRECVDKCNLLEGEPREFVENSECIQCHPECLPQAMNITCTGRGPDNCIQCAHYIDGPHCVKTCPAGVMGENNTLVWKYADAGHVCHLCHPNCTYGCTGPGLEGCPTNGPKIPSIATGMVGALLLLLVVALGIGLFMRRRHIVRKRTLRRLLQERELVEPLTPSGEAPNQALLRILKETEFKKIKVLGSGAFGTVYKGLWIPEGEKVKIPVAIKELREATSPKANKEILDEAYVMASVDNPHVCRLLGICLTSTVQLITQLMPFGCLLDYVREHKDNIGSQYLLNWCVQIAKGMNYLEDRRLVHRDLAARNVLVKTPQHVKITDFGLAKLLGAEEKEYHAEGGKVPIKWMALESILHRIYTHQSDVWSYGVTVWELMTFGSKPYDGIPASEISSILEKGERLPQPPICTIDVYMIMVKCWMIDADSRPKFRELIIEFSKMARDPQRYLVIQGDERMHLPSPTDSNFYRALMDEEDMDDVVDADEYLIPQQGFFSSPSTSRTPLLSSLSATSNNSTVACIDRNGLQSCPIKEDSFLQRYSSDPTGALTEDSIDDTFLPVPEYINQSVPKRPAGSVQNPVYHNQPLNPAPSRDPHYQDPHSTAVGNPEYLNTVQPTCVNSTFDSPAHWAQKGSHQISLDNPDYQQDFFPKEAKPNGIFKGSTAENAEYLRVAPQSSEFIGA

In the case of Nc1ccc(-c2nc3ccccc3s2)cc1 [CJM 126, 2-(4-aminophenyl)benzothiazole], the signs of toxicity (MCF-7 mammary carcinoma) is reported as “no signs of severe toxicity”, the toxicity in panel [1] is reported as “essentially non-toxic” and the “displacement of iodinated EGF from EGFR” value (EGFR) is reported as “no ability to displace”. For the same compound, the “Tumour weight (g)” value ([2]; 0.1mg/kg daily) was “.30 + .07 g”, the “Cross section tumour area (mm)” value ([2]; 0.1mg/kg daily, Day 5) was 97.75 ± 9.55 mm and the “Cross section tumour area (mm)” value ([2]; 0.1mg/kg daily, Day 12) was 71.07 ± 7.2 mm. The “Cross section tumour area (mm)” value ([2]; 0.1mg/kg daily, Day 15) was 82.17 + 1058 mm, the “Cross section tumour area (mm)” value ([2]; 0.1mg/kg daily, Day 19) was 88.84 ± 3.69 mm and the “Cross section tumour area (mm)” value ([2]; 0.1mg/kg daily, Day 22) was 105.66 ± 5.49 mm. For the same compound, the “Cross section tumour area (mm)” value ([2]; 0.1mg/kg daily, Day 26) was 124.55 ± 7.90 mm, the “Cross section tumour area (mm)” value ([2]; 0.1mg/kg daily, Day 29) was 182.15 ± 14.79 mm and the “Cross section tumour area (mm)” value ([2]; 0.1mg/kg daily, Day 32) was 196.66 ± 18.65 mm. The “Tumour weight (g)” value ([2]; .001mg/kg daily) was “.19 + .08 g”, the “Cross section tumour area (mm)” value ([2]; .001mg/kg daily, Day 5) was 85.54 ± 19.44 mm and the “Cross section tumour area (mm)” value ([2]; .001mg/kg daily, Day 12) was 52.93 ± 2.65 mm. For the same compound, the “Cross section tumour area (mm)” value ([2]; .001mg/kg daily, Day 15) was 67.81 ± 12.92 mm, the “Cross section tumour area (mm)” value ([2]; .001mg/kg daily, Day 19) was 64.8 ± 17.35 mm and the “Cross section tumour area (mm)” value ([2]; .001mg/kg daily, Day 22) was 75.12 ± 20.05 mm. For the same compound, the “Cross section tumour area (mm)” value ([2]; .001mg/kg daily, Day 26) was 81.53 ± 26.16 mm, the “Cross section tumour area (mm)” value ([2]; .001mg/kg daily, Day 29) was 114.65 + 3457 mm and the “Cross section tumour area (mm)” value ([2]; .001mg/kg daily, Day 32) was 129.06 ± 32.08 mm. For the same compound, the “Tumour weight (g)” value ([2]; .01mg/kg daily) was “.29 + .15 g”, the “Cross section tumour area (mm)” value ([2]; .01mg/kg daily, Day 5) was 120.78 ± 5.83 mm and the “Cross section tumour area (mm)” value ([2]; .01mg/kg daily, Day 12) was 71.65 ± 11.67 mm. For the same compound, the “Cross section tumour area (mm)” value ([2]; .01mg/kg daily, Day 15) was 78.21 ± 6.69 mm, the “Cross section tumour area (mm)” value ([2]; .01mg/kg daily, Day 19) was 98.03 ± 33.51 mm and the “Cross section tumour area (mm)” value ([2]; .01mg/kg daily, Day 22) was 117.02 ± 42.1 mm. The “Cross section tumour area (mm)” value ([2]; .01mg/kg daily, Day 26) was 131.58 ± 23.41 mm, the “Cross section tumour area (mm)” value ([2]; .01mg/kg daily, Day 29) was 164.90 ± 37.18 mm and the “Cross section tumour area (mm)” value ([2]; .01mg/kg daily, Day 32) was 191.68 ± 45.65 mm. The effect on growth (A431 cells) was “No effect”, the stimulation (MCF 7-ADR mammary; 2nd series of experiments, concentration giving stimulation) was “stimulation > 1µM” and the “effect on cell growth” value (MCF 7-ADR mammary; 3 and 10µM, seeding density 2.5 x 10^2 cells per well) was “induced proliferation”. The BWC ([3]; 1 mg/kg/day) was -5, the “Relative tumour volume (T/C%)” value ([3]; 1 mg/kg/day, d33) was 173% and the “Relative tumour volume (T/C%)” value ([3]; 1 mg/kg/day, d41) was 72%. For the same compound, the “Relative tumour volume (T/C%)” value ([3]; 1 mg/kg/day, d47) was 25* %, the “Relative tumour volume (T/C%)” value ([3]; 1 mg/kg/day, d55) was 67% and the “Relative tumour volume (T/C%)” value ([3]; 1 mg/kg/day, d61) was 41* %. For the same compound, the BWC ([3]; 10 mg/kg/day) was -4, the “Relative tumour volume (T/C%)” value ([3]; 10 mg/kg/day, d33) was 107% and the “Relative tumour volume (T/C%)” value ([3]; 10 mg/kg/day, d41) was 74%. For the same compound, the “Relative tumour volume (T/C%)” value ([3]; 10 mg/kg/day, d47) was 55%, the “Relative tumour volume (T/C%)” value ([3]; 10 mg/kg/day, d55) was 70% and the “Relative tumour volume (T/C%)” value ([3]; 10 mg/kg/day, d61) was 52%. The BWC ([3]; 100 mg/kg/day) was -7, the “Relative tumour volume (T/C%)” value ([3]; 100 mg/kg/day, d33) was 137% and the “Relative tumour volume (T/C%)” value ([3]; 100 mg/kg/day, d41) was 77%. The “Relative tumour volume (T/C%)” value ([3]; 100 mg/kg/day, d47) was 87%, the “Relative tumour volume (T/C%)” value ([3]; 100 mg/kg/day, d55) was 68% and the “Relative tumour volume (T/C%)” value ([3]; 100 mg/kg/day, d61) was 52%. For the same compound, the solubility (Aqueous solubility) was roughly 3.8 µg/mL (≈ 16.8 µM), the LD50 ([4]; daily administration over 3 consecutive days) was greater than 31 mg/kg/day and the LD50 ([4]; male, DBA/2, mouse, in vivo, ip, single i.p. dose, read-out: LD50) was roughly 125 mg/kg.
